The test system of one experiment is sweat glands. Particulars: cited from earlier work.
The subject of the next experiment is rabbit eye pupil. The following applies: in vivo.

Structures can show the parent of a compound that is named as a salt.

With `CN1C2CC(OC(=O)C(COC(=O)c3ccccc3)c3ccccc3)CC1C1OC12` (centres unmarked) [benzoyl ester of scopolamine], in the experiment on sweat glands, the sweat inhibition result was “valuable for sweat inhibition”.

For the compound `CN1[C@@H]2CC[C@H]1C[C@@H](OC(=O)C(CO)c1ccccc1)C2` (some centres unmarked) [Atropine sulfate], in the experiment on rabbit eye pupil, the “rabbit eye pupil result compared with test compound” value is on record as “gave similar results”.

These data come from patent US4022787A (priority 1975, dated 1977).
